Laboratory results reported in patent US6710168B1, “Glycopeptide antibiotics, combinatorial libraries of glycopeptide antibiotics and methods of producing same” (The Trustees of the University of Princeton, priority 1999, dated 2004).
≈ marks a conversion by molar mass, not a printed value.

Experiments:
Assay type in all cases: cell-based
[1] = tested on: Bacillus cereus (ATCC 11778); test: MIC susceptibility test, microdilution with MTT readout; settings: for MIC: Bacillus cereus, ATCC11778, read-out: MIC BC; for MIC BC: Bacillus ceres ATCC11778
Description: (§1) Evaluation of vancomycin analogs is performed using in vitro susceptibility tests and a time-kill assay. [NCCL Standard, 1993] In susceptibility tests, five strains of bacteria, two of the most important: Staphylococcus aureus and Enterococcus faecalis (both susceptible and resistant strains), and Bacillus cereus are chosen and bacteria viability remaining in each well is evaluated using a colorimetric assay based on the tetrazolium salt 3-(4,5-dimethyl-2-thiazolyl)-2,5-diphenyl-2H tetrazolium bromide (MTT) and minimum inhibitory concentration (MIC) values are determined as μg/mL. [Mosmann, T. (1983); Damour, O., et al. (1992); Mikami, Y., et al. (1994)] This assay gives susceptibility information quickly, efficiently, and clearly.
(§2) All strains [Bacillus cereus (ATCC® 11778), Staphylococcus aureus (ATCC® 29213), Methicillin resistant Staphylococcus aureus (ATCC® 33591), Enterococcus faecalis (ATCC® 29212), and gentamicin, streptmycin, vancomycin resistant Enterococcus faecalis (ATCC® 51299), are purchased from REMEL (Lenexa, Kans.).
(§3) MICs are determined by the microdilution method using 96-well microplates. Samples are suspended with Cation Adjusted (20 to 25 mg of Ca^2+/mL and 10 to […] of Mg^2+) Mueller-Hinton broth (Difco Laboratories, Detroit, Mich.) and are two-fold diluted from 5 μg/mL to […] on microplates (12 step dilution). To each well, which contained 100 μL of cell suspension (10^6 CFU/mL), 100 μL of antibiotic solution is added and the plates are incubated at 37° C. for 24 h. 50 μL of MTT solution (1 mg/mL) is added to each well, then the plates are incubated under the same conditions (incubation time; 30 min for Bacillus cereus, Staphylococcus aureus, and Methicillin resistant Staphylococcus aureus; 2 hours for Enterococcus faecalis and Gentamicin, Streptmycin, Vancomycin Enterococcus faecalis). MTT is a yellow tetrazolium salt that is reduced by mitochondrial enzymes in viable cells to an insoluble blue formazan product. MIC values are evaluated by observing the lowest drug concentration to inhibit bacteria growth.

[2] = tested on: Enterococcus faecalis (ATCC 29212); test: as above; settings: Enterococcus faecalis ATCC29212; for MIC: read-out: MIC EF
Description: as §1, §2, §3

[3] = tested on: Methicillin resistant Staphylococcus aureus (ATCC 33591); test: as above; settings: Staphylococcus aureus ATCC3359, Methicillin resistance; for MIC: ATCC 3359 / ATCC 33591 / MRSA, read-out: MIC MRSA
Description: as §1, §2, §3

[4] = tested on: Staphylococcus aureus (ATCC 29213); test: as above; settings: Staphylococcus aureus ATCC29213; for MIC: read-out: MIC SA
Description: as §1, §2, §3

[5] = tested on: gentamicin, streptmycin, vancomycin resistant Enterococcus faecalis (ATCC 51299); test: microbe, parasite or virus in culture; settings: for MIC: Enterococcus faecalis, ATCC51299, read-out: MIC VREF; for MIC VREF: Enterococcus faecalis ATCC51299, vancomycin resistance
Description: as §1, §2, §3

[6] = tested on: Enterococcus faecium CL5137, VanA; test: MIC susceptibility test; settings: Enterococcus faecium CL5137, VanA; for MIC: read-out: MIC CL5137
[7] = tested on: Enterococcus faecalis CL5244, VanB; test: MIC susceptibility test; settings: Enterococcus faecalis CL5244, VanB; for MIC: read-out: MIC CL5244
Description: as §1, §3

Structure (SMILES) | MIC [1] [µg/mL] | MIC [2] [µg/mL] | MIC [3] [µg/mL] | MIC [4] [µg/mL] | MIC [5] [µg/mL] | MIC [6] [µg/mL] | MIC [7] [µg/mL] | MIC BC [1] [µg/mL] | MIC EF [2] [µg/mL] | MIC MRSA [3] [µg/mL] | MIC SA [4] [µg/mL] | MIC VREF [5] [µg/mL] | MIC CL5137 [6] | MIC CL5244 [7]
CN[C@@H](CC(C)C)C(=O)N[C@H]1C(=O)N[C@@H](CC(N)=O)C(=O)N[C@H]2C(=O)NC3C(=O)N[C@H](C(=O)N[C@@H](C(=O)O)c4cc(O)cc(O)c4-c4cc3ccc4O)[C@H](O)c3ccc(c(Cl)c3)Oc3cc2cc(c3OC2OC(CSc3nc(C)cc(O)n3)C(O)C(O)C2OC2CC(C)(NCc3ccc(-c4ccc(Cl)cc4)cc3)C(O)C(C)O2)Oc2ccc(cc2Cl)[C@H]1O (some centres unmarked) [LXXXV, N-4-(4-Chlorophenyl)benzylvancosamine-glucose-C6-2-thio-4-hydroxy-6-methylpyrimidine Vancomycin] | 1.3 (≈ 0.733 µM) | 0.32 (≈ 0.18 µM) | 1.3 (≈ 0.733 µM) | 1.9 (≈ 1.07 µM) | 0.32 (≈ 0.18 µM) | 6.3 (≈ 3.55 µM) | 0.4 (≈ 0.225 µM) |  |  |  |  |  |  | 
CN[C@@H](CC(C)C)C(=O)N[C@H]1C(=O)N[C@@H](CC(N)=O)C(=O)N[C@H]2C(=O)NC3C(=O)N[C@H](C(=O)N[C@@H](C(=O)O)c4cc(O)cc(O)c4-c4cc3ccc4O)[C@H](O)c3ccc(c(Cl)c3)Oc3cc2cc(c3OC2OC(CSc3nnc(NN)n3N)C(O)C(O)C2OC2CC(C)(NCc3ccc(-c4ccc(Cl)cc4)cc3)C(O)C(C)O2)Oc2ccc(cc2Cl)[C@H]1O (some centres unmarked) [LXXXIV, N-4-(4-Chlorophenyl)benzylvancosamine-glucose-C6-5-thio-4-amino-3-hydrazino-1,2,4-triazole Vancomycin] | 0.08 (≈ 0.045 µM) | 0.12 (≈ 0.0675 µM) | 0.48 (≈ 0.27 µM) | 0.63 (≈ 0.354 µM) | 0.16 (≈ 0.09 µM) | 6.3 (≈ 3.54 µM) | 0.2 (≈ 0.112 µM) |  |  |  |  |  |  | 
CNC(CC(C)C)C(=O)NC1C(=O)NC(CC(N)=O)C(=O)NC2C(=O)NC3C(=O)NC(C(=O)NC(C(=O)O)c4cc(O)cc(O)c4-c4cc3ccc4O)C(O)c3ccc(c(Cl)c3)Oc3cc2cc(c3OC2OC(CI)C(O)C(O)C2OC2CC(C)(NCc3ccc(-c4ccc(Cl)cc4)cc3)C(O)C(C)O2)Oc2ccc(cc2Cl)C1O (centres unmarked) [LXXIIa, Vancosamine-N-4-(4-chlorophenyl)benzyl-glucose-C6-iodo vancomycin] |  |  |  |  |  |  |  | 0.32 (≈ 0.182 µM) | 0.16 (≈ 0.0909 µM) | 0.63 (≈ 0.358 µM) | 0.48 (≈ 0.273 µM) | 0.32 (≈ 0.182 µM) | 13 µg/mL (≈ 7.39 µM) | 0.3 µg/mL (≈ 0.17 µM)
CCCCCCCCCCNC1(C)CC(OC2C(Oc3c4cc5cc3Oc3ccc(cc3Cl)C(O)C3NC(=O)C(NC(=O)C5NC(=O)C(CC(N)=O)NC(=O)C(NC(=O)C(CC(C)C)NC)C(O)c5ccc(c(Cl)c5)O4)c4ccc(O)c(c4)-c4c(O)cc(O)cc4C(C(=O)O)NC3=O)OC(CI)C(O)C2O)OC(C)C1O (centres unmarked) [Vancosamine-N-decyl-glucose-C6-iodo-vancomycin] |  |  |  |  |  |  |  | 1.0 (≈ 0.588 µM) | 0.08 (≈ 0.0471 µM) | 0.32 (≈ 0.188 µM) | 1.3 (≈ 0.765 µM) | 0.12 (≈ 0.0706 µM) | 6.3 µg/mL (≈ 3.71 µM) | 0.4< μg/mL
CN[C@@H](CC(C)C)C(=O)N[C@H]1C(=O)N[C@@H](CC(N)=O)C(=O)N[C@H]2C(=O)NC3C(=O)N[C@H](C(=O)N[C@@H](C(=O)O)c4cc(O)cc(O)c4-c4cc3ccc4O)[C@H](O)c3ccc(c(Cl)c3)Oc3cc2cc(c3OC2OC(CSc3nnc(C)c(O)n3)C(O)C(O)C2OC2CC(C)(N)C(O)C(C)O2)Oc2ccc(cc2Cl)[C@H]1O (some centres unmarked) [LXIV, Glucose-C6-2-thio-6-azathymine Vancomycin] | 0.08 (≈ 0.0508 µM) | 0.12 (≈ 0.0762 µM) | 0.32 (≈ 0.203 µM) | 0.24 (≈ 0.152 µM) | 0.16 (≈ 0.102 µM) | > 500 | 1.2 (≈ 0.762 µM) |  |  |  |  |  |  | 
CNC(CC(C)C)C(=O)NC1C(=O)NC(CC(N)=O)C(=O)NC2C(=O)NC3C(=O)NC(C(=O)NC(C(=O)O)c4cc(O)cc(O)c4-c4cc3ccc4O)C(O)c3ccc(c(Cl)c3)Oc3cc2cc(c3OC2OC(CNCc3ccc(-c4ccc(Cl)cc4)o3)C(O)C(O)C2OC2CC(C)(N)C(O)C(C)O2)Oc2ccc(cc2Cl)C1O (centres unmarked) [XXX, Glucose-C6-N-5-(4-chlorophenyl)furan-1-methylene Vancomycin] |  |  |  |  |  |  |  | 0.63 (≈ 0.384 µM) | 0.63 (≈ 0.384 µM) | 0.32 (≈ 0.195 µM) | 0.32 (≈ 0.195 µM) | 0.63 (≈ 0.384 µM) | 50< μg/mL | 1.6 µg/mL (≈ 0.976 µM)
CNC(CC(C)C)C(=O)NC1C(=O)NC(CC(N)=O)C(=O)NC2C(=O)NC3C(=O)NC(C(=O)NC(C(=O)O)c4cc(O)cc(O)c4-c4cc3ccc4O)C(O)c3ccc(c(Cl)c3)Oc3cc2cc(c3OC2OC(CSc3cccc(Cl)c3)C(O)C(O)C2OC2CC(C)(N)C(O)C(C)O2)Oc2ccc(cc2Cl)C1O (centres unmarked) [LV, Glucose-C6-3-chlorothiophenyl Vancomycin] |  |  |  |  |  |  |  | 0.63 (≈ 0.4 µM) | 0.63 (≈ 0.4 µM) | 0.32 (≈ 0.203 µM) | 0.48 (≈ 0.305 µM) | 0.63 (≈ 0.4 µM) | 50< μg/mL | 3.2 µg/mL (≈ 2.03 µM)
CNC(CC(C)C)C(=O)NC1C(=O)NC(CC(N)=O)C(=O)NC2C(=O)NC3C(=O)NC(C(=O)NC(C(=O)O)c4cc(O)cc(O)c4-c4cc3ccc4O)C(O)c3ccc(c(Cl)c3)Oc3cc2cc(c3OC2OC(CNC(=O)c3cnc4ccccc4n3)C(O)C(O)C2OC2CC(C)(N)C(O)C(C)O2)Oc2ccc(cc2Cl)C1O (centres unmarked) [XXXVII, Glucose-C6-N-2-quinoxaloyl Vancomycin] |  |  |  |  |  |  |  | 0.32 (≈ 0.199 µM) | 0.32 (≈ 0.199 µM) | 0.63 (≈ 0.393 µM) | 0.32 (≈ 0.199 µM) | 0.32 (≈ 0.199 µM) | 50< μg/mL | 1.6 µg/mL (≈ 0.997 µM)
CNC(CC(C)C)C(=O)NC1C(=O)NC(CC(N)=O)C(=O)NC2C(=O)NC3C(=O)NC(C(=O)NC(C(=O)O)c4cc(O)cc(O)c4-c4cc3ccc4O)C(O)c3ccc(c(Cl)c3)Oc3cc2cc(c3OC2OC(CN)C(O)C(O)C2OC2CC(C)(N)C(O)C(C)O2)Oc2ccc(cc2Cl)C1O (centres unmarked) [XLVII, Glucose-C6-amine Vancomycin] |  |  |  |  |  |  |  | 1.0 (≈ 0.69 µM) | 1.9 (≈ 1.31 µM) | 0.32 (≈ 0.221 µM) | 0.63 (≈ 0.435 µM) | 1 (≈ 0.69 µM) | 50< μg/mL | 25 µg/mL (≈ 17.3 µM)
CCCCCCCCCCNC1(C)CC(OC2C(Oc3c4cc5cc3Oc3ccc(cc3Cl)C(O)C3NC(=O)C(NC(=O)C5NC(=O)C(CC(N)=O)NC(=O)C(NC(=O)C(CC(C)C)NC)C(O)c5ccc(c(Cl)c5)O4)c4ccc(O)c(c4)-c4c(O)cc(O)cc4C(C(=O)O)NC3=O)OC(CNCc3ccc(-c4ccc(Cl)cc4)o3)C(O)C2O)OC(C)C1O (centres unmarked) [XLIX, Glucose-C6-N-5-(4-chlorophenyl)furan-1-methylene-vancosamine-N-decyl Vancomycin] |  |  |  |  |  |  |  | 3.8 (≈ 2.14 µM) | 1.9 (≈ 1.07 µM) | 2.5 (≈ 1.41 µM) | 5.0 (≈ 2.81 µM) | 1.3 (≈ 0.731 µM) | 13 µg/mL (≈ 7.31 µM) | 0.8 µg/mL (≈ 0.45 µM)
CN[C@@H](CC(C)C)C(=O)N[C@H]1C(=O)N[C@@H](CC(N)=O)C(=O)N[C@H]2C(=O)NC3C(=O)N[C@H](C(=O)N[C@@H](C(=O)O)c4cc(O)cc(O)c4-c4cc3ccc4O)[C@H](O)c3ccc(c(Cl)c3)Oc3cc2cc(c3OC2OC(CSc3nc(N)cc(N)n3)C(O)C(O)C2OC2CC(C)(N)C(O)C(C)O2)Oc2ccc(cc2Cl)[C@H]1O (some centres unmarked) [LXII, Glucose-C6-6-thio-2,4-diaminopyrimidine Vancomycin] | 0.63 (≈ 0.4 µM) | 1.3 (≈ 0.826 µM) | 2.5 (≈ 1.59 µM) | 1.9 (≈ 1.21 µM) | 1.3 (≈ 0.826 µM) | > 50 | 6.3 (≈ 4 µM) |  |  |  |  |  |  | 
